# Several values for one entry are separate records, joined by “and”; a condition that tells them apart may be missing. Equal values may be shown once. Read-outs that look alike come from different tables or passages of the source.
# Tests used:
# [1] = tested on: Puccinia recondita f. sp. tritici; test: Puccinia recondita f. sp. tritici / wheat / leaf disc preventative (brown rust); assay type: in vivo; conditions: foliar, vs untreated control
# Protocol: (§1) Leaf disks or leaf segments of various plant species are cut from plants grown in a greenhouse. The cut leaf disks or segments are placed in multiwell plates (24-well format) onto water agar. The leaf disks are sprayed with a test solution before (preventative) or after (curative) inoculation. Compounds to be tested are prepared as DMSO solutions (max. 10 mg/mL) which are diluted to the appropriate concentration with 0.025% Tween20 just before spraying. The inoculated leaf disks or segments are incubated under defined conditions (temperature, relative humidity, light, etc.) according to the respective test system. A single evaluation of disease level is carried out 3 to 14 days after inoculation, depending on the pathosystem. Percent disease control relative to the untreated check leaf disks or segments is then calculated.
# Wheat leaf segments cv. Kanzler are placed on agar in multiwell plates (24-well format) and sprayed with the formulated test compound diluted in water. The leaf disks are inoculated with a spore suspension of the fungus 1 day after application. The inoculated leaf segments are incubated at 19° C. and 75% rh under a light regime of 12 h light/12 h darkness in a climate cabinet and the activity of a compound is assessed as percent disease control compared to untreated when an appropriate level of disease damage appears in untreated check leaf segments (7-9 days after application).
# [2] = tested on: Glomerella lagenarium (Colletotrichum lagenarium); test: Glomerella lagenarium (Colletotrichum lagenarium) liquid culture / cucumber / preventative (anthracnose); assay type: cell-based; conditions: Colletotrichum orbiculare, vs untreated control
# Protocol: Mycelia fragments or conidia suspensions of a fungus prepared either freshly from liquid cultures of the fungus or from cryogenic storage, are directly mixed into nutrient broth. DMSO solutions of the test compound (max. 10 mg/mL) are diluted with 0.025% Tween20 by a factor of 50 and 10 μl of this solution is pipetted into a microtiter plate (96-well format). The nutrient broth containing the fungal spores/mycelia fragments is then added to give an end concentration of the tested compound. The test plates are incubated in the dark at 24° C. and 96% relative humidity. The inhibition of fungal growth is determined photometrically after 2 to 7 days, depending on the pathosystem, and percent antifungal activity relative to the untreated check is calculated.
# Conidia of the fungus from cryogenic storage are directly mixed into nutrient broth (PDB potato dextrose broth). After placing a (DMSO) solution of test compound into a microtiter plate (96-well format), the nutrient broth containing the fungal spores is added.
# Phakopsora pachyrhizi [3] = test: Phakopsora pachyrhizi / soybean / leaf disc preventative (Asian soybean rust); assay type: in vivo; conditions: foliar, 288 h, vs untreated control
# Protocol: as §1
# Soybean leaf disks are placed on agar in multiwell plates (24-well format) and sprayed with test solutions. After drying, the leaf disks are inoculated with a spore suspension of the fungus. After appropriate incubation the activity of a compound is assessed approx.12 dpi (days after inoculation) as preventive fungicidal activity.
# [4] = tested on: Puccinia recondita f. sp. tritici; test: Puccinia recondita f. sp. tritici / wheat / leaf disc curative (brown rust); assay type: in vivo; conditions: foliar, vs untreated control
# Protocol: Leaf disks or leaf segments of various plant species are cut from plants grown in a greenhouse. The cut leaf disks or segments are placed in multiwell plates (24-well format) onto water agar. The leaf disks are sprayed with a test solution before (preventative) or after (curative) inoculation. […] The inoculated leaf disks or segments are incubated under defined conditions (temperature, relative humidity, light, etc.) according to the respective test system. […] Percent disease control relative to the untreated check leaf disks or segments is then calculated. Wheat leaf segments cv. Kanzler are placed on agar in multiwell plates (24-well format). The leaf segments are inoculated with a spore suspension of the fungus. […] The formulated test compound diluted in water is applied 1 day after inoculation.
# Septoria tritici = test: Example B3: mixtures, preventative activity against Septoria tritici (leaf blotch), liquid culture; assay type: cell-based; conditions: component A alone
# Excerpt: (§2) This occurs whenever the action of an active ingredient combination is greater than the sum of the actions of the individual components. The action to be expected E for a given active ingredient combination obeys the so-called COLBY formula and can be calculated as follows (COLBY, S. R. “Calculating synergistic and antagonistic responses of herbicide combination”. Weeds, Vol. 15, pages 20-22; 1967):
# (§3) If the action actually observed (O) is greater than the expected action (E), then the action of the combination is super-additive, i.e. there is a synergistic effect. In mathematical terms, synergism corresponds to a positive value for the difference of (O-E). In the case of purely complementary addition of activities (expected activity), said difference (O-E) is zero. A negative value of said difference (O-E) signals a loss of activity compared to the expected activity.
# (§4) Conidia of the fungus from cryogenic storage were directly mixed into nutrient broth (PDB potato dextrose broth). A DMSO solution of the test compounds was placed into a microtiter plate (96-well format) and the nutrient broth containing the fungal spores was added to it.
# (§5) Fungicidal activity was evaluated on a 100-0 scale (100=no disease growth; 0=well completely covered by mycelium).
# Septoria glycines = test: Example B2: mixtures, preventative activity against Septoria glycines (brown spot), liquid culture; assay type: cell-based; conditions: Septoria glycines, component A alone
# Excerpt: as §2, §3
# as §4, with “fungus harvested” for “fungus”, “a fresh culture grown on artificial media,” for “cryogenic storage”
# as §5
# [5] = tested on: Glomerella lagenarium syn. Colletotrichum lagenarium; test: Example B1: mixtures, preventative activity against Glomerella lagenarium syn. Colletotrichum lagenarium, liquid culture; assay type: cell-based; conditions: Colletotrichum orbiculare, component A alone
# Excerpt: as §2, §3, §4, §5
# Phakopsora pachyrhizi [6] = test: Example B5: preventative activity against Phakopsora pachyrhizi (soybean rust), whole soybean plants sprayed, leaf disks inoculated; assay type: in vivo; conditions: applied alone
# Protocol: Whole soybean plants are treated with the recited active ingredients 4 weeks after planting. 1 day after spraying leaf disks are cut from the first trifoliate leaf. Five repetitions at each rate are conducted. The leaf disks are inoculated with Phakopsora pachyrhizi (Asian soybean rust) one day after treatment.
# Evaluation of the leaf disks is conducted 11 to 14 days after inoculation and the activity is derived from the relation of the treated vs untreated, infested check (100=no disease, no damage to the leaf, 0=high infestation, leaf damaged heavily). The rates of the active ingredients used are given in the tables as g active ingredient (a.i.)/ha.
# [7] = tested on: Mycosphaerella arachidis syn. Cercospora arachidicola; test: Example B4: mixtures, preventative activity against Mycosphaerella arachidis syn. Cercospora arachidicola (brown leaf spot of peanut), liquid culture; assay type: cell-based; conditions: Mycosphaerella arachidis, component A alone
# Excerpt: as §2, §3, §4
# Cercospora arachidicola (Brown leaf spot of peanut). Fungicidal activity was evaluated on a 100-0 scale (100=no disease growth; 0=well completely covered by mycelium).
# [8] = 0.1 ppm, read-out: Activity (%) A
# [9] = Phakopsora pachyrhizi, foliar, read-out: Observed Activity (%) (% of untreated) against Phakopsora pachyrhizi
# [10] = Phakopsora pachyrhizi, foliar, 4.5 g/ha, read-out: Observed Activity (%) (% of untreated) against Phakopsora pachyrhizi
Structure (SMILES),pest or weed control at 200 ppm [1],inhibition of growth at 6.7 ppm [2],melting point,pest or weed control at 67 ppm (Phakopsora pachyrhizi [3]),pest or weed control at 200 ppm [4],other results
"CO/C=C(\Oc1cc(-n2ccc(C3CCC3)n2)ccc1C)C(=O)OC [X.04, methyl (Z)-2-[5-(3-cyclobutylpyrazol-1-yl)-2-methyl-phenoxy]-3-methoxy-prop-2-enoate]",≥ 80%,≥ 80%,91 to 94 °C,≥ 80%,≥ 80%,–
"CO/C=C(\Oc1cc(-n2ccc(C(F)(F)F)n2)ccc1C)C(=O)OC [X.08, methyl (Z)-3-methoxy-2-[2-methyl-5-[3-(trifluoromethyl)pyrazol-1-yl]phenoxy]prop-2-enoate]",≥ 80%,≥ 80%,154 to 156 °C,≥ 80%,–,"inhibition at 0.00625 ppm (Septoria tritici; Zymoseptoria tritici, 0.00625 ppm, 100-0 scale): 0%; inhibition at 0.025 ppm (Septoria tritici; Zymoseptoria tritici, 0.025 ppm, 100-0 scale): 70%; inhibition at 0.03 ppm (Septoria tritici; Zymoseptoria tritici, 0.03 ppm, 100-0 scale, read-out: Activity (%) A): 50%; inhibition at 0.1 ppm (Septoria tritici; Zymoseptoria tritici, 0.1 ppm, 100-0 scale, read-out: Activity (%) A): 70%; Activity (%) A (Septoria tritici; 0.025 ppm, 100-0 scale): 90%; inhibition at 0.00625 ppm (Septoria glycines; 0.00625 ppm): 0%; inhibition at 0.025 ppm (Septoria glycines; 0.025 ppm): 70%; inhibition at 0.03 ppm (Septoria glycines; 0.03 ppm, read-out: Activity (%) A): 70%; inhibition at 0.05 ppm (Septoria glycines; 0.05 ppm): 90%; inhibition at 0.1 ppm (Septoria glycines; [8]): 70%; inhibition at 0.03 ppm ([5]; 0.03 ppm): 0%; inhibition at 0.1 ppm [5, 8]: 0%; inhibition at 2.25 g/ha (Phakopsora pachyrhizi [6]; [9]): 1%; inhibition at 4.5 g/ha (Phakopsora pachyrhizi [6]; [10]): 10%; Observed Activity (% of untreated) against Phakopsora pachyrhizi (Phakopsora pachyrhizi [6]; 18 g/ha): 38% and 77%; inhibition at 0.00625 ppm ([7]; 0.00625 ppm): 0%; inhibition at 0.025 ppm ([7]; 0.025 ppm): 70%; inhibition at 0.03 ppm ([7]; 0.03 ppm): 70%"
"CO/C=C(\Oc1cc(-n2ccc(CC(C)C)n2)ccc1C)C(=O)OC [X.05, methyl (Z)-2-[5-(3-isobutylpyrazol-1-yl)-2-methyl-phenoxy]-3-methoxy-prop-2-enoate]",≥ 80%,≥ 80%,76 to 80 °C,≥ 80%,≥ 80%,–
"CCC(C)c1ccn(-c2ccc(C)c(O/C(=C\OC)C(=O)OC)c2)n1 (stereo not shown) [X.02, methyl (Z)-3-methoxy-2-[2-methyl-5-(3-sec-butylpyrazol-1-yl)phenoxy]prop-2-enoate]",≥ 80%,≥ 80%,110 to 113 °C,≥ 80%,–,–
"CO/C=C(\Oc1cc(-n2ccc(OC(C)C)n2)ccc1C)C(=O)OC [X.03, methyl (Z)-2-[5-(3-isopropoxypyrazol-1-yl)-2-methyl-phenoxy]-3-methoxy-prop-2-enoate]",≥ 80%,≥ 80%,94 to 97 °C,≥ 80%,≥ 80%,–
"CO/C=C(\Oc1cc(-n2ncc(C(C)C)n2)ccc1C)C(=O)OC [X.12, methyl (Z)-2-[5-(4-isopropyltriazol-2-yl)-2-methyl-phenoxy]-3-methoxy-prop-2-enoate]",≥ 80%,≥ 80%,–,≥ 80%,≥ 80%,–
"CO/C=C(\Oc1cc(-n2ncc(C3CC3)n2)ccc1C)C(=O)OC [X.11, methyl (Z)-2-[5-(4-cyclopropyltriazol-2-yl)-2-methyl-phenoxy]-3-methoxy-prop-2-enoate]",≥ 80%,≥ 80%,–,≥ 80%,≥ 80%,–
"CO/C=C(\Oc1cc(-n2ccc(C3CC3)n2)ccc1C)C(=O)OC [X.07, methyl (Z)-2-[5-(3-cyclopropylpyrazol-1-yl)-2-methyl-phenoxy]-3-methoxy-prop-2-enoate]",≥ 80%,≥ 80%,115 to 118 °C,≥ 80%,≥ 80%,–
"CCCc1cnn(-c2ccc(C)c(O/C(=C\OC)C(=O)OC)c2)n1 [X.09, methyl (Z)-3-methoxy-2-[2-methyl-5-(4-propyltriazol-2-yl)phenoxy]prop-2-enoate]",≥ 80%,≥ 80%,–,≥ 80%,≥ 80%,"inhibition at 0.0025 ppm (Septoria tritici; Zymoseptoria tritici, 72 h, 0.0025 ppm): 70%; inhibition at 0.005 ppm (Septoria tritici; Zymoseptoria tritici, 72 h, 0.005 ppm): 90%; inhibition at 0.0025 ppm (Septoria glycines; 0.0025 ppm): 70%; inhibition at 0.005 ppm (Septoria glycines; 0.005 ppm): 90%; inhibition at 2.25 g/ha (Phakopsora pachyrhizi [6]; [9]): 34%; inhibition at 4.5 g/ha (Phakopsora pachyrhizi [6]; Phakopsora pachyrhizi, foliar, 4.5 g/ha, read-out: Observed Activity (% of untreated) against Phakopsora pachyrhizi): 94%; inhibition at 4.5 g/ha (Phakopsora pachyrhizi [6]; [10]): 95%; inhibition at 9 g/ha (Phakopsora pachyrhizi [6]; Phakopsora pachyrhizi, foliar, 9 g/ha, read-out: Observed Activity (% of untreated) against Phakopsora pachyrhizi): 97%; inhibition at 18 g/ha (Phakopsora pachyrhizi [6]; Phakopsora pachyrhizi, foliar, 18 g/ha, read-out: Observed Activity (% of untreated) against Phakopsora pachyrhizi): 97%; Observed Activity (% of untreated) against Phakopsora pachyrhizi (Phakopsora pachyrhizi [6]; 4.5 g/ha): 93% and 81% and 82%; inhibition at 0.0025 ppm ([7]; 0.0025 ppm): 50%; inhibition at 0.005 ppm ([7]; 0.005 ppm): 90%"

# — US20230131427A1, “FUNGICIDAL COMPOSITIONS” (SYNGENTA CROP PROTECTION AG, priority 2020, published 2023)
